Molecular target: Human neutrophil elastase (Homo sapiens (Human), UniProt P08246)
Experiment: Human Neutrophil Elastase Assay
Type: biochemical
Conditions: substrate MeOSuc-Ala-Ala-Pro-Val-AMC 250 μM, pH 7.5, fluorescence
Description: Human Neutrophil Elastase Assay
All other materials were of the highest grade commercially available.
The following buffers were used: Compound buffer: 100 mM Tris, 500 mM NaCl, adjusted to pH 7.5; Assay buffer: 100 mM Tris, 500 mM NaCl, adjusted to pH 7.5, containing 0.01% BSA.
Assay conditions: Test compounds were prediluted in DMSO and subsequently in compound buffer (5% DMSO final). […] After inactivation of the enzyme, fluorescence intensities were measured at 380 nm excitation and 460 nm emission wavelengths.
Each plate contains wells with a high value control (DMSO+enzyme+substrate) and wells with a low value control (DMSO+inactivated enzyme+substrate). IC50 values were estimated using a sigmoidal concentration response curve with variable slope. Means of low values were taken as 0%, means of high values as 100%. IC50 values of selected compound in the Neutrophil Elastase assay: […]

Human neutrophil elastase, sequence (P08246 30-267): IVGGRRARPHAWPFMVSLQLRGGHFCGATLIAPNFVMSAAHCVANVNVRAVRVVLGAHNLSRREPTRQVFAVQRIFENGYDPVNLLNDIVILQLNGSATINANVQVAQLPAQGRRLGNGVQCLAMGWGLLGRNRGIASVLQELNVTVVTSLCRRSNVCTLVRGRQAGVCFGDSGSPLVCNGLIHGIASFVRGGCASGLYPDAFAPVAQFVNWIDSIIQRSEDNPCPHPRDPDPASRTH

Cc1c(-c2cccc(C(F)(F)F)c2)c(=O)c(C(=O)NCc2ccc(S(C)(=O)=O)cn2)cn1C1CCOC1 (centres unmarked) [Example 22, 6-Methyl-4-oxo-1-(tetrahydro-furan-3-yl)-5-(3-trifluoromethyl-phenyl)-1,4-dihydro-pyridine-3-carboxylic acid (5-methanesulfonyl-pyridin-2-ylmethyl)-amide]
IC50: 27 nM

Cc1c(-c2cccc(C(F)(F)F)c2)c(=O)c(C(=O)NCc2cccnn2)cn1C(C)C [Example 3.3]
IC50: 90 nM

CCn1cc(C(=O)NCc2ccc(S(C)(=O)=O)cc2)c(=O)c(-c2cccc(C(F)(F)F)c2)c1C [Example 1.1, 1-Ethyl-6-methyl-4-oxo-5-(3-trifluoromethyl-phenyl)-1,4-dihydro-pyridine-3-carboxylic acid 4-methanesulfonyl-benzylamide]
IC50: 33 nM

CCn1cc(C(=O)NCc2ccc(S(C)(=O)=O)cn2)c(=O)c(-c2cccc(C(F)(F)F)c2)c1C [Example 2.1]
IC50: 57 nM

Cc1c(-c2cccc(C(F)(F)F)c2)c(=O)c(C(=O)NCc2ccc(S(=O)(=O)C3CC3)cc2)cn1C(C)C [Example 31, 1-Isopropyl-6-methyl-4-oxo-5-(3-trifluoromethyl-phenyl)-1,4-dihydro-pyridine-3-carboxylic acid 4-cyclopropanesulfonyl-benzylamide]
IC50: 5.2 nM

Cc1nnc(CNC(=O)c2cn(C3CCCC3)c(C)c(-c3cccc(C(F)F)c3)c2=O)o1 [Example 9.1, 1-Cyclopentyl-5-(3-difluoromethyl-phenyl)-6-methyl-4-oxo-1,4-dihydro-pyridine-3-carboxylic acid (5-methyl-[1,3,4]oxadiazol-2-ylmethyl)-amide]
IC50: 28 nM

Cc1cc(S(C)(=O)=O)ccc1CNC(=O)c1cn(C(C)C)c(C)c(-c2cccc(C(F)F)c2)c1=O [Example 37, 5-(3-Difluoromethyl-phenyl)-1-isopropyl-6-methyl-4-oxo-1,4-dihydro-pyridine-3-carboxylic acid 4-methanesulfonyl-2-methyl-benzylamide]
IC50: 27 nM

COCCn1cc(C(=O)NCc2ccc(S(C)(=O)=O)c[n+]2[O-])c(=O)c(-c2cccc(C(F)(F)F)c2)c1C [Example 16, 1-(2-Methoxy-ethyl)-6-methyl-4-oxo-5-(3-trifluoromethyl-phenyl)-1,4-dihydro-pyridine-3-carboxylic acid (5-methanesulfonyl-1-oxy-pyridin-2-ylmethyl)-amide]
IC50: 63 nM

Cc1c(-c2cccc(C(F)F)c2)c(=O)c(C(=O)NCc2ccc(S(C)(=O)=O)cc2F)cn1C(C)C [Example 35, 5-(3-Difluoromethyl-phenyl)-1-isopropyl-6-methyl-4-oxo-1,4-dihydro-pyridine-3-carboxylic acid 2-fluoro-4-methanesulfonyl-benzylamide]
IC50: 17 nM

Cc1cc(CNC(=O)c2cn(C(C)C)c(C)c(-c3cccc(C(F)(F)F)c3)c2=O)ccc1S(C)(=O)=O [Example 28.1, 1-Isopropyl-6-methyl-4-oxo-5-(3-trifluoromethyl-phenyl)-1,4-dihydro-pyridine-3-carboxylic acid 4-methanesulfonyl-3-methyl-benzylamide]
IC50: 7 nM

Cc1c(-c2cccc(C(F)(F)F)c2)c(=O)c(C(=O)NCc2cccc(S(C)(=O)=O)c2)cn1C(C)C [Example 3.6]
IC50: 89 nM

Cc1c(-c2ccnc(C(F)(F)F)c2)c(=O)c(C(=O)NCc2ccc(S(C)(=O)=O)cn2)cn1C(C)C [Example 17.3, 1-Isopropyl-2-methyl-4-oxo-2′-trifluoromethyl-1,4-dihydro-[3,4]bipyridinyl-5-carboxylic acid (5-methanesulfonyl-pyridin-2-ylmethyl)-amide]
IC50: 77 nM

Cc1c(-c2cccc(C(F)F)c2)c(=O)c(C(=O)NCc2cccc(S(C)(=O)=O)c2)cn1C(C)C [Example 4.9]
IC50: 63 nM

Cc1c(-c2cccc(C(F)(F)F)c2)c(=O)c(C(=O)NCc2ccc([S+](C)[O-])cc2)cn1C(C)C (single isomer, unassigned) [Example 27.1B]
IC50: 30 nM

CC[C@H](C)n1cc(C(=O)NCc2nnc(C)o2)c(=O)c(-c2cccc(C(F)F)c2)c1C [Example 26, (S)-1-sec-Butyl-5-(3-difluoromethyl-phenyl)-6-methyl-4-oxo-1,4-dihydro-pyridine-3-carboxylic acid (5-methyl-[1,3,4]oxadiazol-2-ylmethyl)-amide]
IC50: 22 nM

Cc1c(-c2ccnc(C(F)(F)F)c2)c(=O)c(C(=O)NCc2ccc(S(C)(=O)=O)cc2)cn1C(C)C [Example 5.1, 1-Isopropyl-2-methyl-4-oxo-2′-trifluoromethyl-1,4-dihydro-[3,4]bipyridinyl-5-carboxylic acid 4-methanesulfonyl-benzylamide]
IC50: 72 nM

Cc1c(-c2cccc(C(F)(F)F)c2)c(=O)c(C(=O)NCc2ccc(S(C)(=O)=O)cc2F)cn1C(C)C [Example 34, 1-Isopropyl-6-methyl-4-oxo-5-(3-trifluoromethyl-phenyl)-1,4-dihydro-pyridine-3-carboxylic acid 2-fluoro-4-methanesulfonyl-benzylamide]
IC50: 26 nM

Cc1c(-c2cccc(C(F)F)c2)c(=O)c(C(=O)NCc2ccc(N3CCNC3=O)cc2)cn1C(C)C [Example 4.12]
IC50: 69 nM

Cc1nnc(CNC(=O)c2cn(C3CCC3)c(C)c(-c3cccc(C(F)(F)F)c3)c2=O)o1 [Example 24.1, 1-Cyclobutyl-6-methyl-4-oxo-5-(3-trifluoromethyl-phenyl)-1,4-dihydro-pyridine-3-carboxylic acid (5-methyl-[1,3,4]oxadiazol-2-ylmethyl)-amide]
IC50: 57 nM

Cc1nnc(CNC(=O)c2cn(C(C)C)c(C)c(-c3cccc(C(F)(F)F)c3)c2=O)o1 [Example 3.1, 1-Isopropyl-6-methyl-4-oxo-5-(3-trifluoromethyl-phenyl)-1,4-dihydro-pyridine-3-carboxylic acid (5-methyl-[1,3,4]oxadiazol-2-ylmethyl)-amide]
IC50: 38 nM

Cc1c(-c2cccc(C(F)(F)F)c2)c(=O)c(C(=O)NCc2ccncc2)cn1C(C)C [Example 3.2]
IC50: 97 nM

Cc1c(-c2cccc(C(F)F)c2)c(=O)c(C(=O)NCc2ccc(S(C)(=O)=O)cn2)cn1C1CCC1 [Example 18.2, 1-Cyclobutyl-5-(3-difluoromethyl-phenyl)-6-methyl-4-oxo-1,4-dihydro-pyridine-3-carboxylic acid (5-methanesulfonyl-pyridin-2-ylmethyl)-amide]
IC50: 35 nM

Cc1c(-c2cccc(C(F)(F)F)c2)c(=O)c(C(=O)NCc2ccc(S(C)(=O)=O)cc2)cn1CC(F)F [Example 46, 1-(2,2-Difluoro-ethyl)-6-methyl-4-oxo-5-(3-trifluoromethyl-phenyl)-1,4-dihydro-pyridine-3-carboxylic acid 4-methanesulfonyl-benzylamide]
IC50: 46 nM

CCS(=O)(=O)c1ccc(CNC(=O)c2cn(C(C)C)c(C)c(-c3cccc(C(F)(F)F)c3)c2=O)cc1 [Example 30.1, 1-Isopropyl-6-methyl-4-oxo-5-(3-trifluoromethyl-phenyl)-1,4-dihydro-pyridine-3-carboxylic acid 4-ethanesulfonyl-benzylamide]
IC50: 13 nM

CCC(CC)n1cc(C(=O)NCc2ccc(S(C)(=O)=O)cn2)c(=O)c(-c2cccc(C(F)F)c2)c1C [Example 23.2, 5-(3-Difluoromethyl-phenyl)-1-(1-ethyl-propyl)-6-methyl-4-oxo-1,4-dihydro-pyridine-3-carboxylic acid (5-methanesulfonyl-pyridin-2-ylmethyl)-amide]
IC50: 5 nM

Cc1c(-c2cccc(C(F)F)c2)c(=O)c(C(=O)NCc2ccc(CN3CCCC3=O)cc2)cn1C(C)C [Example 4.13]
IC50: 20 nM

Cc1c(-c2cccc(C(F)F)c2)c(=O)c(C(=O)NCc2ccc3c(c2)CCS3(=O)=O)cn1C(C)C [Example 29.2, 5-(3-Difluoromethyl-phenyl)-1-isopropyl-6-methyl-4-oxo-1,4-dihydro-pyridine-3-carboxylic acid (1,1-dioxo-2,3-dihydro-1H-1λ^6-benzo[b]thiophen-5-ylmethyl)-amide]
IC50: 3 nM

Cc1cc(CNC(=O)c2cn(C(C)C)c(C)c(-c3cccc(C(F)F)c3)c2=O)ccc1S(C)(=O)=O [Example 28.2, 5-(3-Difluoromethyl-phenyl)-1-isopropyl-6-methyl-4-oxo-1,4-dihydro-pyridine-3-carboxylic acid 4-methanesulfonyl-3-methyl-benzylamide]
IC50: 6 nM

Cc1nnc(CNC(=O)c2cn(C(C)C)c(C)c(-c3cccc(C(F)F)c3)c2=O)o1 [Example 4.3]
IC50: 27 nM

CC[C@H](C)n1cc(C(=O)NCc2ccc(S(C)(=O)=O)cc2)c(=O)c(-c2ccnc(C(F)(F)F)c2)c1C [Example 12.3, (S)-1-sec-Butyl-2-methyl-4-oxo-2′-trifluoromethyl-1,4-dihydro-[3,4]bipyridinyl-5-carboxylic acid 4-methanesulfonyl-benzylamide]
IC50: 54 nM

CC[C@@H](C)n1cc(C(=O)NCc2nnc(C)o2)c(=O)c(-c2cccc(C(F)(F)F)c2)c1C [Example 25.1, (R)-1-sec-Butyl-6-methyl-4-oxo-5-(3-trifluoromethyl-phenyl)-1,4-dihydro-pyridine-3-carboxylic acid (5-methyl-[1,3,4]oxadiazol-2-ylmethyl)-amide]
IC50: 37 nM

CCC(CC)n1cc(C(=O)NCc2ccc(S(C)(=O)=O)cc2)c(=O)c(-c2ccnc(C(F)(F)F)c2)c1C [Example 15.3, 1-(1-Ethyl-propyl)-2-methyl-4-oxo-2′-trifluoromethyl-1,4-dihydro-[3,4]bipyridinyl-5-carboxylic acid 4-methanesulfonyl-benzylamide]
IC50: 24 nM
